Assay [1] concerns the target T1, E. coli transketolase (TK; TKhigh / TKlow forms) (Escherichia coli, UniProt P27302, D469T/R520Q/S385Y).
T1 construct: gene tktA; N-terminal His6 tag, expressed in E. coli XL10-gold from pQR791; homodimer; purified sample is a mix of TKhigh (oxidised) and TKlow subunits
The assay can be described thus: intrinsic fluorescence quenching (ex […] nm, em […] nm), double-Hill fit. Format: binding.

The target of assay [2] is T2, E. coli transketolase (TK; TKhigh / TKlow forms) (Escherichia coli, UniProt P27302).
T2 construct: gene tktA; N-terminal His6 tag, expressed in E. coli XL10-gold from pQR791; homodimer; purified sample is a mix of TKhigh (oxidised) and TKlow subunits
Described as above. Format: binding. The settings on record: read-out: Kd(high)^HPA.

Each structure is given as a SMILES string. Where two headings read alike, the source gives them in different places.

T1 sequence (P27302 whole entry S385Y/D469T/R520Q): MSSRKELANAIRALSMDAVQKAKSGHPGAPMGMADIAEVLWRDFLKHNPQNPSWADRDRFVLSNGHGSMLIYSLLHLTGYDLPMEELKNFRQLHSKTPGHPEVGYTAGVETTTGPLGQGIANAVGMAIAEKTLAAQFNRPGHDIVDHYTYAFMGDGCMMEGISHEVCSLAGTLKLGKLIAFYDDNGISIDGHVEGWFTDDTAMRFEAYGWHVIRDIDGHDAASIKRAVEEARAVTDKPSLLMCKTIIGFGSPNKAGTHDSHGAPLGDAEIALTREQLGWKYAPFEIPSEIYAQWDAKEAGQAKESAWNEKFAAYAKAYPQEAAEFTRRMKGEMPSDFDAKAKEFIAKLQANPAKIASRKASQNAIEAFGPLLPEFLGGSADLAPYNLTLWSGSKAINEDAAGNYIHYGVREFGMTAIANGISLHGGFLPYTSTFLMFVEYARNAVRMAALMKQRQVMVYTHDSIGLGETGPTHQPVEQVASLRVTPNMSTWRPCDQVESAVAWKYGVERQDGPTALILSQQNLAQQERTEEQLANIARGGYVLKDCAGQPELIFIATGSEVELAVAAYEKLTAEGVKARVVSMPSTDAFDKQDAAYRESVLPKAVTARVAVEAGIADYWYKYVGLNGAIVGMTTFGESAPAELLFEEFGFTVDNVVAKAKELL
T2 sequence (P27302 whole entry): as the sequence (P27302 whole entry S385Y/D469T/R520Q) above, with Y385S, T469D, Q520R counted along it

What is called Kd is the constant that tells how readily two partners part at equilibrium. Consider `O=C(O)C(=O)CO` [HPA, β-hydroxypyruvate], for which the equilibrium dissociation constant (Kd) in assay [1] (read-out: Kd(high)^HPA) turned out to be 3.61 ± 0.31 mM; in assay [2] it was 3.42 ± 0.45 mM.

Turning to `Cc1ncc(C[n+]2csc(CCO[P@](=O)(O)OP(=O)(O)O)c2C)c(N)n1` [TPP, thiamine pyrophosphate], in assay [1] (read-out: Kd(high)^TPP), the Kd amounted to 0.0066 ± 0.00164 mM.

The record behind these values is paper PMC7057962, “The Two-Species Model of transketolase explains donor substrate-binding, inhibition and heat-activation” (Scientific Reports, 2020).
